pIC50: −log10 of the molar value. Residues, ends and D or L forms follow the SMILES beside them. No end group written: not given here.
What was measured:
[1] = target: T1, angiotensin converting enzyme (ACE) (Oryctolagus cuniculus, UniProt P12822); assay: ACE assay with purified ACE enzyme (Inhibition of Angiotensin Converting Enzyme); assay type: biochemical; conditions: purified ACE enzyme (Sigma); for ACE inhibiting activity (in words): judged from IC50 values; for pIC50: synthetic peptides, purity >95%
T1 construct: purchased Sigma
T1 sequence (P12822 34-1310): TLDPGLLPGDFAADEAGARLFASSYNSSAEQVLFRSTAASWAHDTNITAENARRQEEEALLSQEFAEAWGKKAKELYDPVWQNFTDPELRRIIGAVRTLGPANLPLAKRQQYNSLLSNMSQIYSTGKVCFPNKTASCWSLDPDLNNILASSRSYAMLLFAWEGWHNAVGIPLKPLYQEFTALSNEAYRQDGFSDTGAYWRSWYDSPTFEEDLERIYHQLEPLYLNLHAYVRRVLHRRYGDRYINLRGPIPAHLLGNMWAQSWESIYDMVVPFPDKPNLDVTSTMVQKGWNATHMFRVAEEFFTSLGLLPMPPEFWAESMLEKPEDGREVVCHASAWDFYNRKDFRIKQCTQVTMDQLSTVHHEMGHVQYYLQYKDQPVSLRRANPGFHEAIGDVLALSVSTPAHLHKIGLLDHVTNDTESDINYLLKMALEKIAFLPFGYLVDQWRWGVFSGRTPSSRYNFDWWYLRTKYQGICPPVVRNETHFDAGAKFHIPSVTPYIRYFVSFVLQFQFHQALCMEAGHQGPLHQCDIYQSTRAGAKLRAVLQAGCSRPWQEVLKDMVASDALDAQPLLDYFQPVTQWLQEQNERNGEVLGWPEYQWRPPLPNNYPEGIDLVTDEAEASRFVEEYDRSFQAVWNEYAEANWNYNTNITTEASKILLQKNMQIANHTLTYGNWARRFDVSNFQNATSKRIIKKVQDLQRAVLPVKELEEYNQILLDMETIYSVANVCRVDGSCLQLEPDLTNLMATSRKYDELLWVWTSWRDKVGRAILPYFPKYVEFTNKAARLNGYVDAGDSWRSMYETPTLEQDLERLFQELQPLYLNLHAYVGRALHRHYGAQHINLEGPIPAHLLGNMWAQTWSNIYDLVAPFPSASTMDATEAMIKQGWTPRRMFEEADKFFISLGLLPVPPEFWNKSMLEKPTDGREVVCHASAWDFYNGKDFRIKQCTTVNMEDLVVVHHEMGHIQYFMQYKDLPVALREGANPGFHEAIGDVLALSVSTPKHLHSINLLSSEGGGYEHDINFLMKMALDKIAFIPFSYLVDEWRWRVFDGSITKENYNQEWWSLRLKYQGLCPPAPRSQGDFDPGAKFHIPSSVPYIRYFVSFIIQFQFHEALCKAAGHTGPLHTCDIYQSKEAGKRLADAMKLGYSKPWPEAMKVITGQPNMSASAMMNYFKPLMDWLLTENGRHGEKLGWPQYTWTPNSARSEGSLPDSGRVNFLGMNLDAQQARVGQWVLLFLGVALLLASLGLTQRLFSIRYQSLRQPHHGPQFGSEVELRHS
Description: In order to determine IC50 values for the peptides included in this invention, pure peptides (purity of >95% in weight) were prepared by custom solid-phase synthesis on a 10 μmol scale and subsequently purified by HPLC (synthesis and purification performed by Eurosequence, the Netherlands). Purified ACE enzyme (Sigma) was used for the ACE assay (Wu et al. 2002 J. Chromatography 950, 125-130). […] Finally, the peptides which are fragments of the amino acid sequences shown in SEQ ID NO: 1, SEQ ID NO: 2 and SEQ ID NO: 3, respectively SEQ ID NO: 7, SEQ ID NO: 8 and SEQ ID NO: 9 were tested for their ACE inhibiting activity.

[2] = Bioavailability: peptide amount in plasma after oral administration to mice; assay type: in vivo; conditions: mouse, 500 ug, Balb/C mice, 500 μg each orally, two hours after administration, HPLC-MS
Description: Peptides SEQ ID NO: 1, SEQ ID NO: 2 and SEQ ID NO: 3 (purity of >95% in weight, 500 μg each) were orally administered to mice (Balb/C, 3 months of age). After 2 hours, mice were sacrificed and a blood sample collected. After centrifugation of the blood sample (5 min, 3000 g) plasma was collected, dried and resuspended in ethyl acetate. The samples were then analyzed by HPLC-MS, and the amount of the peptides of this invention present in the plasma samples calculated using standard curves. Two hours after their oral administration, all three peptides were found in the plasma samples in the following amounts: SEQ ID NO: 1: 7.5 μg/ml, SEQ ID NO: 2: 1.2 μg/ml, and SEQ ID NO: 3: 0.9 μg/ml.

Q: Which “ACE inhibiting activity (in words)” value [1] does the source give for CC(C)C[C@H](NC(=O)[C@@H](N)CO)C(=O)N1CCC[C@H]1C(=O)N[C@@H](CCC(=O)O)C(=O)O [SEQ ID NO: 2] (H-SLPE-OH; N-terminus and C-terminus assumed) here?
A: The value was “strong inhibitors of ACE”.

Q: And the pIC50 [1]?
A: Its pIC50 is 3.48.

Q: What about the level at 2 h [2] of the same compound?
A: The level at 2 h was 1200 ng/mL.

Q: For NCCCC[C@H](NC(=O)[C@@H]1CCCN1C(=O)[C@H](CCC(=O)O)NC(=O)[C@@H](N)CO)C(=O)O [SEQ ID NO: 3] (H-SEPK-OH; N-terminus and C-terminus assumed), which “ACE inhibiting activity (in words)” value [1] is on record?
A: The value was “strong inhibitors of ACE”.

Q: What about the pIC50 [1] of the same compound?
A: The pIC50 was 3.45.

Q: And the level at 2 h [2]?
A: Its level at 2 h is 900 ng/mL.

Q: Which “ACE inhibiting activity (in words)” value [1] does the source give for CC(C)C[C@H](N)C(=O)N1CCC[C@H]1C(=O)N[C@@H](CCC(=O)O)C(=O)O [SEQ ID NO: 8] (H-Leu-Pro-Glu-OH; N-terminus and C-terminus assumed) here?
A: Its value is “good ACE inhibitors”.

Q: And the pIC50 [1]?
A: The pIC50 was 3.47.

Q: For NCCCC[C@H](NC(=O)[C@@H]1CCCN1C(=O)[C@@H](N)CCC(=O)O)C(=O)O [SEQ ID NO: 9] (H-Glu-Pro-Lys-OH; N-terminus and C-terminus assumed), which “ACE inhibiting activity (in words)” value [1] is on record?
A: Its value is “good ACE inhibitors”.

Q: What about the pIC50 [1] of the same compound?
A: Its pIC50 is 3.44.

Q: With FYGPIPNS [SEQ ID NO: 4] as the compound, how does the “ACE inhibiting activity (in words)” value [1] read?
A: Its value is “good ACE inhibitors”.

Q: And the pIC50 [1]?
A: Its pIC50 is 3.36.

Q: Which results are given for GPIPN [SEQ ID NO: 7]?
A: ACE inhibiting activity (in words) [1]: good ACE inhibitors; pIC50 [1]: 3.54

Q: For LSEPKV [SEQ ID NO: 6], which “ACE inhibiting activity (in words)” value [1] is on record?
A: The value was “good ACE inhibitors”.

Q: What about the pIC50 [1] of the same compound?
A: The pIC50 was 3.40.

Q: For NSLPEN [SEQ ID NO: 5], which “ACE inhibiting activity (in words)” value [1] is on record?
A: The value was “good ACE inhibitors”.

Q: And the pIC50 [1]?
A: Its pIC50 is 3.43.

Q: Which “ACE inhibiting activity (in words)” value [1] does the source give for YGPIPN [SEQ ID NO: 1] here?
A: Its value is “strong inhibitors of ACE”.

Q: What about the pIC50 [1] of the same compound?
A: The pIC50 was 3.50.

Q: What about the level at 2 h [2] of the same compound?
A: The level at 2 h was 7500 ng/mL.

From US20080132454A1, “Antihypertensive Peptides” (priority 2004, published 2008)
